Reference: US12559529B2, “NPY2 receptor agonists” (Boehringer Ingelheim International GmbH, priority 2019, dated 2026)
*1 amine or outer side, *2 acyl side, *3 side chain or, on linkers, in order; H or OH if unused. Where a SMILES comes first, the peptide text is derived from it. Side-chain parts run from the residue outwards. The star is where a group is joined. C18 diacid = O=C(O)CCCCCCCCCCCCCCCCC(=O)*; γGlu = O=C(O)[C@H](CCC(=O)[*:2])N[*:1]; Isovaleryl = CC(C)CC(=O)*; AEEA = NCCOCCOCC(=O)O

These compounds were tested against T1, Human Neuropeptide Y2 Receptor (Homo sapiens, UniProt P49146) (assay: Radioligand binding competition assay (RLB)). Conditions: Table 3; human 125I-PYY (1-36) 0.02 nM, Y2 receptor membranes; read-out: Ki.
T1 construct: purchased CHEMICON HTS066M
T1 sequence (P49146 1-381): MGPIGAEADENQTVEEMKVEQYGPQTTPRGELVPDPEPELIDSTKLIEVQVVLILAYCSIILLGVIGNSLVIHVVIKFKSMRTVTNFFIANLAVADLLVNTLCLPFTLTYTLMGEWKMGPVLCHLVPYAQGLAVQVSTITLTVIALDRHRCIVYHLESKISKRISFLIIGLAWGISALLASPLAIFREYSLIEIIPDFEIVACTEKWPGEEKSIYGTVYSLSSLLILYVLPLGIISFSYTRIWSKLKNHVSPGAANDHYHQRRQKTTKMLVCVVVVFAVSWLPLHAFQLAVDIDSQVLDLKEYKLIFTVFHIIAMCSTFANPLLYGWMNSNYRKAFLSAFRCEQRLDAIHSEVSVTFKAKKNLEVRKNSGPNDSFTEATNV
In short: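 Competition binding on human Y2 receptor membranes, 0.5 μg protein/well, in 50 mM HEPES, 5 mM MgCl2, 1 mM CaCl2, pH 7.4, 0.2% ovalbumin; peptides diluted from 1 mM DMSO stocks.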

| SMILES | Ki |
| --- | --- |
| CC(C)CC(=O)N[C@@H](C)C(=O)N1CCC[C@H]1C(=O)N[C@@H](CCC(=O)O)C(=O)N[C@@H](CCCCNC(=O)COCCOCCNC(=O)COCCOCCNC(=O)CC[C@H](NC(=O)CCCCCCCCCCCCCCCCC(=O)O)C(=O)O)C(=O)N[C@@H](C)C(=O)N[C@@H](CCC(=O)O)C(=O)N[C@@H](CCC(=O)O)C(=O)N[C@@H](CC(=O)O)C(=O)N[C@@H](C)C(=O)N[C@@H](CO)C(=O)N1CCC[C@H]1C(=O)N[C@@H](CCC(=O)O)C(=O)N[C@@H](CCC(=O)O)C(=O)N[C@@H](CC(C)C)C(=O)N[C@@H](CCC(=O)O)C(=O)N[C@@H](CCC(N)=O)C(=O)N[C@@H](Cc1ccc(O)cc1)C(=O)N[C@@H](Cc1ccc(O)cc1)C(=O)N[C@H](C(=O)N[C@@H](CO)C(=O)N[C@@H](CC(C)C)C(=O)N[C@@H](CCCNC(=N)N)C(=O)N[C@@H](Cc1c[nH]cn1)C(=O)N[C@@H](Cc1ccc(O)cc1)C(=O)N[C@@H](Cc1ccc(O)cc1)C(=O)N[C@@H](CC(N)=O)C(=O)N[C@@H](Cc1c[nH]c2ccccc12)C(=O)N[C@@H](CC(C)C)C(=O)N[C@H](C(=O)N[C@@H](CCCNC(=N)N)C(=O)N[C@@H](CCC(N)=O)C(=O)N[C@@H](CCCNC(=N)N)C(=O)N[C@@H](Cc1ccc(O)cc1)C(N)=O)[C@@H](C)O)C(C)C [Compound 227, N{alpha-4}-(3-methylbutanoyl)-N{epsilon-7}-[2-(2-{2-[2-(2-{2-[(4S)-4-carboxy-4-(17-carboxyheptadecanamido)butanamido]ethoxy}ethoxy)acetamido]ethoxy}ethoxy)acetamido]-[4A,7K,8A,9E,18E,19Q,22V,28Y,30W,31L]hPYY (4-36)] (Isovaleryl-APEK([AEEA-AEEA-γGlu-C18 diacid])AEEDASPEELEQYYVSLRHYYNWLTRQRY-NH2) | 12.3 nM |
| CC(C)CC(=O)N[C@@H](C)C(=O)N1CCC[C@H]1C(=O)N[C@@H](CCC(=O)O)C(=O)N[C@@H](CCCCNC(=O)COCCOCCNC(=O)COCCOCCNC(=O)CC[C@H](NC(=O)CCCCCCCCCCCCCCCCC(=O)O)C(=O)O)C(=O)N1CCC[C@H]1C(=O)N[C@@H](CCC(=O)O)C(=O)N[C@@H](CCC(=O)O)C(=O)N[C@@H](CC(=O)O)C(=O)N[C@@H](C)C(=O)N[C@@H](CO)C(=O)N1CCC[C@H]1C(=O)N[C@@H](CCC(=O)O)C(=O)N[C@@H](CCC(=O)O)C(=O)N[C@@H](CC(C)C)C(=O)N[C@@H](CCC(N)=O)C(=O)N[C@@H](CCCNC(=N)N)C(=O)N[C@@H](Cc1ccc(O)cc1)C(=O)N[C@@H](Cc1ccc(O)cc1)C(=O)N[C@H](C(=O)N[C@@H](CO)C(=O)N[C@@H](C)C(=O)N[C@@H](CCCNC(=N)N)C(=O)N[C@@H](Cc1c[nH]cn1)C(=O)N[C@@H](Cc1ccc(O)cc1)C(=O)N[C@@H](Cc1ccc(O)cc1)C(=O)N[C@@H](CC(N)=O)C(=O)N[C@@H](Cc1c[nH]c2ccccc12)C(=O)N[C@@H](CC(C)C)C(=O)N[C@H](C(=O)N[C@@H](CCCNC(=N)N)C(=O)N[C@@H](CCC(N)=O)C(=O)N[C@@H](CCCNC(=N)N)C(=O)N[C@@H](Cc1ccc(O)cc1)C(N)=O)[C@@H](C)O)C(C)C [Compound 229, N{alpha-4}-(3-methylbutanoyl)-N{epsilon-7}-[2-(2-{2-[2-(2-{2-[(4S)-4-carboxy-4-(17-carboxyheptadecanamido)butanamido]ethoxy}ethoxy)acetamido]ethoxy}ethoxy)acetamido]-[4A,7K,9E,18Q,22V,24A,28Y,30W,31L]hPYY (4-36)] | 2.84 nM |
| CC(C)CC(=O)N[C@@H](C)C(=O)N1CCC[C@H]1C(=O)N[C@@H](C)C(=O)N[C@@H](CCCCNC(=O)COCCOCCNC(=O)COCCOCCNC(=O)CC[C@H](NC(=O)CCCCCCCCCCCCCCCCC(=O)O)C(=O)O)C(=O)N1CCC[C@H]1C(=O)N1CCC[C@H]1C(=O)N[C@@H](CCC(=O)O)C(=O)N[C@@H](CC(=O)O)C(=O)N[C@@H](C)C(=O)N[C@@H](CO)C(=O)N1CCC[C@H]1C(=O)N[C@@H](CCC(=O)O)C(=O)N[C@@H](CCC(=O)O)C(=O)N[C@@H](CC(C)C)C(=O)N[C@@H](CCC(N)=O)C(=O)N[C@@H](CCCNC(=N)N)C(=O)N[C@@H](Cc1ccc(O)cc1)C(=O)N[C@@H](Cc1ccc(O)cc1)C(=O)N[C@H](C(=O)N[C@@H](CCC(=O)O)C(=O)N[C@@H](CC(C)C)C(=O)N[C@@H](CCCNC(=N)N)C(=O)N[C@@H](Cc1c[nH]cn1)C(=O)N[C@@H](Cc1ccc(O)cc1)C(=O)N[C@@H](Cc1ccc(O)cc1)C(=O)N[C@@H](CC(N)=O)C(=O)N[C@@H](Cc1c[nH]c2ccccc12)C(=O)N[C@@H](CC(C)C)C(=O)N[C@H](C(=O)N[C@@H](CCCNC(=N)N)C(=O)N[C@@H](CCC(N)=O)C(=O)N[C@@H](CCCNC(=N)N)C(=O)N[C@@H](Cc1ccc(O)cc1)C(N)=O)[C@@H](C)O)C(C)C [Compound 232, N{alpha-4}-(3-methylbutanoyl)-N{epsilon-7}-[2-(2-{2-[2-(2-{2-[(4S)-4-carboxy-4-(17-carboxyheptadecanamido)butanamido]ethoxy}ethoxy)acetamido]ethoxy}ethoxy)acetamido]-[4A,6A,7K,9P,18Q,22V,23E,28Y,30W,31L]hPYY (4-36)] | 0.81 nM |
| CC(C)CC(=O)N[C@@H](C)C(=O)N1CCC[C@H]1C(=O)N[C@@H](CCC(=O)O)C(=O)N[C@@H](CCCCNC(=O)COCCOCCNC(=O)COCCOCCNC(=O)CC[C@H](NC(=O)CCCCCCCCCCCCCCCCC(=O)O)C(=O)O)C(=O)N[C@H](C(=O)N[C@@H](CCC(=O)O)C(=O)N[C@@H](CCC(=O)O)C(=O)N[C@@H](CCC(=O)O)C(=O)N[C@@H](C)C(=O)N[C@@H](CO)C(=O)N1CCC[C@H]1C(=O)N[C@@H](CCC(=O)O)C(=O)N[C@@H](CCC(=O)O)C(=O)N[C@@H](CC(C)C)C(=O)N[C@@H](CCC(N)=O)C(=O)N[C@@H](CCCNC(=N)N)C(=O)N[C@@H](Cc1ccc(O)cc1)C(=O)N[C@@H](Cc1ccc(O)cc1)C(=O)N[C@H](C(=O)N[C@@H](CO)C(=O)N[C@@H](CC(C)C)C(=O)N[C@@H](CCCNC(=N)N)C(=O)N[C@@H](Cc1c[nH]cn1)C(=O)N[C@@H](Cc1ccc(O)cc1)C(=O)N[C@@H](Cc1ccc(O)cc1)C(=O)N[C@@H](CC(N)=O)C(=O)N[C@@H](Cc1c[nH]c2ccccc12)C(=O)N[C@@H](CC(C)C)C(=O)N[C@H](C(=O)N[C@@H](CCCNC(=N)N)C(=O)N[C@@H](CCC(N)=O)C(=O)N[C@@H](CCCNC(=N)N)C(=O)N[C@@H](Cc1ccc(O)cc1)C(N)=O)[C@@H](C)O)C(C)C)[C@@H](C)O [Compound 238, N{alpha-4}-(3-methylbutanoyl)-N{epsilon-7}-[2-(2-{2-[2-(2-{2-[(4S)-4-carboxy-4-(17-carboxyheptadecanamido)butanamido]ethoxy}ethoxy)acetamido]ethoxy}ethoxy)acetamido]-[4A,7K,8T,9E,11E,18Q,22V,28Y,30W,31L]hPYY (4-36)] (Isovaleryl-APEK([AEEA-AEEA-γGlu-C18 diacid])TEEEASPEELQRYYVSLRHYYNWLTRQRY-NH2) | 25.1 nM |
| CC(C)CC(=O)N[C@@H](C)C(=O)N1CCC[C@H]1C(=O)N[C@@H](CCC(=O)O)C(=O)N[C@@H](CCCCNC(=O)COCCOCCNC(=O)COCCOCCNC(=O)CC[C@H](NC(=O)CCCCCCCCCCCCCCCCC(=O)O)C(=O)O)C(=O)N1CCC[C@H]1C(=O)N[C@@H](CCC(=O)O)C(=O)N[C@@H](C)C(=O)N[C@@H](CC(=O)O)C(=O)N[C@@H](C)C(=O)N[C@@H](CO)C(=O)N[C@@H](C)C(=O)N[C@@H](CCC(=O)O)C(=O)N[C@@H](CCC(=O)O)C(=O)N[C@@H](CC(C)C)C(=O)N[C@@H](CCC(N)=O)C(=O)N[C@@H](CCCNC(=N)N)C(=O)N[C@@H](Cc1ccc(O)cc1)C(=O)N[C@@H](Cc1ccc(O)cc1)C(=O)N[C@H](C(=O)N[C@@H](CO)C(=O)N[C@@H](CC(C)C)C(=O)N[C@@H](CCCNC(=N)N)C(=O)N[C@@H](Cc1c[nH]cn1)C(=O)N[C@@H](Cc1ccc(O)cc1)C(=O)N[C@@H](Cc1ccc(O)cc1)C(=O)N[C@@H](CC(N)=O)C(=O)N[C@@H](Cc1c[nH]c2ccccc12)C(=O)N[C@@H](CC(C)C)C(=O)N[C@H](C(=O)N[C@@H](CCCNC(=N)N)C(=O)N[C@@H](CCC(N)=O)C(=O)N[C@@H](CCCNC(=N)N)C(=O)N[C@@H](Cc1ccc(O)cc1)C(N)=O)[C@@H](C)O)C(C)C [Compound 242, N{alpha-4}-(3-methylbutanoyl)-N{epsilon-7}-[2-(2-{2-[2-(2-{2-[(4S)-4-carboxy-4-(17-carboxyheptadecanamido)butanamido]ethoxy}ethoxy)acetamido]ethoxy}ethoxy)acetamido]-[4A,7K,9E,10A,14A,18Q,22V,28Y,30W,31L]hPYY (4-36)] | 0.81 nM |
